{"source": "paper PMC11314410", "about": "“Synthesis and Anti-Trypanosoma cruzi Activity of New Pyrazole-Thiadiazole Scaffolds” (Molecules, 2024)", "key": {"[1]": {"tested_on": "Trypomastigotes of T. cruzi (Dm28c-Luc)", "experiment": "microbe, parasite or virus in culture", "format": "cell-based, Trypanosoma cruzi", "conditions": "for IC50 / IC90: Trypanosoma cruzi, Dm28c-Luc, 24 h treatment; for IC50: mean ± SD, read-out: Anti-T. cruzi Activity Trypomastigotes IC50; for IC90: read-out: Anti-T. cruzi Activity Trypomastigotes IC90", "experimental": "(§1) Genetically modified T. cruzi parasites, of clone Dm28c (TcI) expressing the firefly luciferase enzyme gene (Dm28c-Luc), were kindly provided by Dr. Cristina Henriques. T. cruzi Dm28c-Luc was maintained in a Vero cell cultivated in RPMI 1640 medium supplemented with 10% FBS. At 4-day post-infection (dpi), trypomastigotes, released in the cell culture supernatant, were harvested, followed by sedimentation (4000 rpm/20 min/4 °C) and quantification in a Neubauer chamber. Isolated trypomastigotes were used in the phenotypic screening assays as well as the antiparasitic activity in 3D cardiac microtissues, recovery (washout), and drug combination assays.\nDrug screening was performed against clinically relevant forms of T. cruzi (amastigotes and trypomastigotes). Trypomastigotes, Dm28c-Luc (1 × 10^6 parasites/well), were added to 96-well plates and incubated with pyrazole-thiadiazole derivatives or Bz (100–0.41 µM). After 24 h of treatment (37 °C), the viability of the parasites was analyzed by adding a D-Luciferin solution (300 µg/mL) and luminescence was measured in the Glomax microplate reader."}, "[2]": {"experiment": "Toxicity in mammalian cells (CellTiter Glo, 72 h)", "format": "cell-based", "conditions": "African green monkey, Vero cells; 72 h, ATP levels; read-out: Cytotoxicity Vero Cells CC50", "experimental": "(§2) Vero cell cultures grown in RPMI 1640 medium containing 10% fetal bovine serum (FBS) were cultured at 37 °C in a humidified atmosphere of 5% CO2 [82]. The cultures were used for drug screening assays and to obtain culture-derived trypomastigotes of T. cruzi.\n(§3) Vero cells (1.5 ×10^4 cells/well), cultivated for 24 h at 37 °C in white 96-well plates with clear bottoms, were used to assess the toxicity of the pyrazole-thiadiazole derivatives (series 1 and 2). After washing, the cells were incubated for 72 h at 37 °C with different drug concentrations (500–1.95 μM). Cell viability was measured by adding 20 μL/well of CellTiter Glo reagent (Promega Corporation, Madison, WI, USA). This cell viability kit generates a luminescent signal proportional to the amount of ATP. The luminescence readout was performed using the Glomax Microplate Reader (Promega Corporation, Madison, WI, USA). Thus, the 50% cytotoxicity concentration (CC50), which reduces the cell viability by 50% (CC50), was calculated with Prism GraphPad software (version 8.2.1)."}, "[3]": {"tested_on": "T. cruzi (Dm28c-Luc) intracellular parasites in 3D cardiac spheroids", "experiment": "Antiparasitic activity in T. cruzi-infected 3D cardiac microtissues", "format": "cell-based, Trypanosoma cruzi", "conditions": "72 h; for inhibition at 100 µM: Trypanosoma cruzi, read-out: Inhibition of parasite load in 3D cardiac microtissue", "experimental": "(§4) Three-dimensional (3D) cardiac cells were obtained as previously described. Briefly, isolated cardiac muscle cells (2.5 × 10^4 cells/well) were seeded in 96-well U-bottom plates coated with agarose (1%) to form cell aggregates. Cardiac microtissue (7 days in culture) was employed to determine cardiotoxicity and drug efficacy in more complex systems. All animal-use procedures were approved by the Animal Care and Use Committee of Instituto Oswaldo Cruz (license L017/2022-A2).\nCardiac spheroids (2.5 × 10^4 cells/well), formed after 7 days of cultivation in a U-bottom plate, were infected for 24 h with trypomastigote forms of T. cruzi (Dm28c-Luc) at a ratio of 20:1 parasite-host cell. After washing, the drugs were added at concentrations of IC90, two times IC90, and 100 µM, respecting the CC20 value of cardiac spheroids as the maximum concentration. Bz was added at 100 µM. Luminescence measurements, which reveal the luciferase activity of the viable parasites, were performed after the addition of D-luciferin substrate (300 µg/mL). The luminescent signal was read in the Glomax reader and the results were represented in arbitrary luminescence units (ALU). The fluorescence microscopy images were also acquired from untreated and drug-treated infected 3D microtissues. Three-dimensional cultures were fixed with 4% paraformaldehyde in PBS and labeled with 4′,6-diamidino-2-phenylindole (DAPI). Images were acquired using a Zeiss Axio Imager M2 fluorescence microscope using Axio vision software (version 4.8)."}, "[4]": {"experiment": "Cardiac toxicity in 3D cardiac spheroids (CellTiter-Glo, 72 h)", "format": "cell-based, Swiss webster mice", "conditions": "Swiss webster, mouse, 3D cardiac microtissue (cardiac spheroids), ATP levels, read-out: Toxicity CC50 3D Culture", "experimental": "as §4\n(§5) The 2D cardiac cultures (5 × 10^4 cells/well) and 3D cardiac microtissues (2.5 × 10^4 cells/well) were incubated for 72 h at 37 °C with pyrazole-thiadiazole candidates followed by ATP detection by CellTiter-Glo [86]. A minimum of 3 independent assays were performed in duplicate."}, "[5]": {"tested_on": "T. cruzi in 3D cardiac spheroids", "parameters": "method as in PMID 33383023", "conditions": "10 µM; cited from earlier work"}, "[6]": {"experiment": "Cardiac toxicity in 2D cardiac monolayers (CellTiter-Glo, 72 h)", "format": "cell-based, Swiss webster mice", "conditions": "Swiss webster, mouse, primary cardiac muscle cell monolayers (2D culture), ATP levels", "experimental": "The primary culture of heart muscle cells was obtained from fetuses of Swiss webster mice. The heart was removed and the ventricles were fragmented and subjected to dissociation with trypsin and collagenase type II (Worthington Biochemical Corporation, Lakewood, USA) dissociation solution. Cell monolayers were employed to evaluate drug-induced cardiotoxicity.\nas §5"}, "[7]": {"tested_on": "T. cruzi (Dm28c-Luc) in Vero cell cultures", "experiment": "Washout (recovery) assay in T. cruzi-infected Vero cell cultures", "format": "cell-based, Trypanosoma cruzi", "conditions": "for ALUmean of parasite load in cell monolayer, washout assay: 10 days treatment + 10 days without drug; for inhibition at 150 µM: Trypanosoma cruzi, Vero", "experimental": "The culture medium of the untreated and treated infected cultures was replaced every 3 or 4 days by a fresh medium with or without the pyrazole-thiadiazole derivatives. The presence of free viable parasites in the culture supernatant was monitored at each medium change by adding luciferin (300 µg/mL) followed by readout on a Glomax microplate reader. At the endpoint, culture supernatants and cell monolayers were evaluated for viable parasites. Positive and negative controls were performed using Bz (150 µM) and DMSO (≤1%), respectively. A minimum of 3 independent experimental runs were performed with 12 replicates."}, "[8]": {"tested_on": "Intracellular amastigotes of T. cruzi (Dm28c-Luc)", "experiment": "microbe, parasite or virus in culture", "format": "cell-based, Trypanosoma cruzi", "conditions": "for IC50 / IC90: Trypanosoma cruzi; for IC90: read-out: Anti-T. cruzi Activity Intracellular Amastigotes IC90", "experimental": "as §1\nThe activity of pyrazole-thiadiazole derivatives against intracellular amastigotes was evaluated in 24 h-T. cruzi infected Vero cell cultures (1.5 × 10^4 cells/well) at a 10:1 ratio. The cultures were washed and incubated with serial dilutions of the derivatives or Bz (100–0.41 µM). Drug treatment was carried out for 72 h at 37 °C and the parasite viability was determined by luminescence readout after D-Luciferin substrate addition (300 µg/mL). The reading was performed in the Glomax reader. The cell cultures incubated with the culture medium containing dimethylsulphoxide (DMSO; concentration ≤ 1%) were used as the […]. The concentrations required to inhibit parasite viability by 50% (IC50) and 90% (IC90) were calculated using Prism GraphPad software (version 8.2.1). The selectivity index (SI), which measures the window between cytotoxicity (CC50) and anti-T. cruzi activity (IC50), was calculated as CC50/IC50. A minimum of 3 independent assays in duplicate were performed."}, "[9]": {"tested_on": "T. cruzi infection of HeLa spheroids", "parameters": "method as in PMID 36099853", "conditions": "40 µM pretreatment of HeLa spheroids; cited from earlier work"}, "Vero cells": {"tested_on": "Vero cells", "experiment": "Toxicity in mammalian cells (CellTiter Glo, 72 h)", "format": "cell-based", "experimental": "as §2, §3"}, "[10]": {"conditions": "Vero, read-out: Intracellular Amastigotes pIC50 (converted)"}, "[11]": {"conditions": "Dm28c-Luc in Vero cells, 72 h treatment, mean ± SD, read-out: Anti-T. cruzi Activity Intracellular Amastigotes IC50"}, "[12]": {"conditions": "Dm28c-Luc in Vero cells, 72 h treatment, mean ± SD"}}, "note": "Read-outs that look alike come from different tables or passages of the source."}
{"compound": "O=C(Cn1ccnc1[N+](=O)[O-])NCc1ccccc1", "note": "[Bz, benznidazole, reference compound]", "values": [{"measurement": "Trypomastigotes SI (CC50 of Vero cells/IC50 of trypomastigotes)", "setting": "[1]", "value": ">38.88"}, {"measurement": "IC50", "setting": "[1]", "value": "12.8 ± 2.66", "unit": "µM"}, {"measurement": "IC90", "setting": "[1]", "value": "> 100", "unit": "µM"}, {"measurement": "CC50 at 72 h", "setting": "[2]", "value": "> 500", "unit": "µM"}, {"measurement": "ALUmean (luminescence, parasite load) in 3D cardiac microtissue", "setting": "[3]; 100 µM", "value": "3520 ± 2198", "unit": "ALU"}, {"measurement": "inhibition at 100 µM", "setting": "[3]", "value": 91, "unit": "%"}, {"measurement": "CC50 at 72 h", "setting": "[4]", "value": "> 500", "unit": "µM"}, {"measurement": "Reduction of parasite load", "setting": "[5]", "value": 92, "unit": "%"}, {"measurement": "CC50 at 72 h", "setting": "[6]", "value": "> 500", "unit": "µM"}, {"measurement": "ALUmean of parasite load in cell monolayer, washout assay", "setting": "[7]; 150 µM", "value": "3426 ± 1727", "unit": "ALU"}, {"measurement": "inhibition at 150 µM", "setting": "[7]; read-out: Inhibition in the release of trypomastigotes", "value": 77, "unit": "%"}, {"measurement": "inhibition at 150 µM", "setting": "[7]; read-out: Inhibition of parasite release", "value": 82, "unit": "%"}, {"measurement": "Intracellular Amastigotes SI (CC50 of Vero cells/IC50 of intracellular amastigotes)", "setting": "[8]", "value": ">158.23"}, {"measurement": "IC50", "setting": "[8]; [10]", "value": 3.63, "unit": "µM"}, {"measurement": "IC50", "setting": "[8]; [11]", "value": "3.61 ± 1.25", "unit": "µM"}, {"measurement": "IC90", "setting": "[8]; [12]", "value": "11.5 ± 4.17", "unit": "µM"}]}
{"compound": "Oc1ccc(/C=C/c2cc(O)cc(O)c2)cc1", "note": "[resveratrol]", "values": [{"measurement": "Reduction of T. cruzi infection level", "setting": "[9]", "value": 50, "unit": "%"}]}
{"compound": "Nc1nnc(-c2cnn(-c3ccc([N+](=O)[O-])cc3)c2N)s1", "note": "[2k, 5-Amino-2-(5-amino-1-(4-nitrophenyl)-1H-pyrazol-4-yl)-1,3,4-thiadiazole]", "values": [{"measurement": "Trypomastigotes SI (CC50 of Vero cells/IC50 of trypomastigotes)", "setting": "[1]", "value": ">5"}, {"measurement": "IC50", "setting": "[1]; 24 h", "value": "> 100", "unit": "µM"}, {"measurement": "IC90", "setting": "[1]", "value": "> 100", "unit": "µM"}, {"measurement": "CC50 at 72 h", "setting": "[2]", "value": "> 500", "unit": "µM"}, {"measurement": "CC20 for Vero cell monolayers", "setting": "Vero cells", "value": "> 500", "unit": "µM"}, {"measurement": "ALUmean (luminescence, parasite load) in 3D cardiac microtissue", "setting": "[3]; 100 µM", "value": "5366 ± 2348", "unit": "ALU"}, {"measurement": "inhibition at 100 µM", "setting": "[3]; 100 µM, vs infected untreated", "value": 86, "unit": "%"}, {"measurement": "CC50 at 72 h", "setting": "[4]", "value": "> 500", "unit": "µM"}, {"measurement": "melting point", "value": "321 to 323", "unit": "°C"}, {"measurement": "CC50 at 72 h", "setting": "[6]", "value": "191 ± 21", "unit": "µM"}, {"measurement": "Activity relative to 1c in cell monolayer, washout assay", "setting": "[7]; 150 µM", "value": 11.8, "unit": "times"}, {"measurement": "ALUmean of parasite load in cell monolayer, washout assay", "setting": "[7]; 150 µM", "value": "4845 ± 2419", "unit": "ALU"}, {"measurement": "Activity relative to 1c in cell monolayer, washout assay", "setting": "[7]; 300 µM", "value": 19.8, "unit": "times"}, {"measurement": "Reduction of parasite release vs untreated infected group", "setting": "[7]; 300 µM, 14 dpi", "value": 93, "unit": "%"}, {"measurement": "ALUmean of parasite load in cell monolayer, washout assay", "setting": "[7]; 300 µM", "value": "3349 ± 1767", "unit": "ALU"}, {"measurement": "Prevention of reactivation of infection after drug withdrawal", "setting": "[7]; washout assay", "value": "did not prevent parasite recrudescence"}, {"measurement": "IC50", "setting": "[8]; [10]", "value": 10.5, "unit": "µM"}, {"measurement": "IC50", "setting": "[8]; [11]", "value": "10.4 ± 1.21", "unit": "µM"}, {"measurement": "IC90", "setting": "[8]; [12]", "value": "23.2 ± 4.23", "unit": "µM"}]}
